# Results from patent publication US11083729B2, “Methods of treating cancer with small molecule NF-κB inhibitors” (ImmuneTarget, Inc., priority 2017, dated 2021).
# Columns and labels:
# MCF-7 = test: CellTiter-Glo IG50, Example 8, MCF-7; assay type: cell-based; conditions: Homo sapiens, MCF7, MCF-7, 72 hours
# Procedure: (§1) Various pancreatic, liver, colon, breast, and stomach cancer cell lines were exposed to the NF-κB inhibitors of the present invention, including, for example, IT-839, IT-843, IT-848, and IT-878, and assessed for IG50 in the CellTiter Glo 2.0 assay.
# (§2) The cells were cultured in an atmosphere of 37° C., 5% CO2 and 95% humidity. All culture media and FBS were purchased from GIBCO, Hyclone or Sigma, USA. The media used for cell culture is described in the table below.
# (§3) The cells were harvested during the logarithmic growth period and counted. Cell concentrations were adjusted to the appropriate number in appropriate medium and 90 μl cell suspensions were added to 96-well plates. When cells were added, the plates were shaken gently to distribute the cells evenly. Cells were incubated at 37° C. and 5% CO2.
# (§4) 3× serial dilutions of test compound stock solutions with respective solvents were prepared. The stock solutions were diluted with culture medium to generate 10× working solutions of the test compounds. 10 μl of the 10× test compound solutions were added to each well in triplicate for each concentration. Plates were incubated for 72 hours in a humidified incubator at 37° C. and 5% CO2.
# (§5) CellTiter-Glo (CTG) solution was thawed and equilibrated to room temperature. 50 μl of CTG were added to each well and the contents were mixed for 2 minutes on a plate shaker. Cells were incubated for 10 minutes before luminescence signal was recorded using Envision.
# (§6) Cell viability was plotted with GraphPad Prism version 5 and the IG50 was calculated for each cell line. The graphical curves were fitted using a nonlinear regression model with a sigmoidal dose response. IG50 is the concentration of test drug where 100×T/C=50 (the optical density of the test well after a 3-day period of exposure to test drug is T; the control optical density is C).
# HCT116 = test: CellTiter-Glo IG50, Example 8, HCT116; assay type: cell-based; conditions: Homo sapiens, HCT-116, HCT116, 72 hours
# Procedure: as §1, §2, §3, §4, §5, §6
# HepG2 [1] = test: CellTiter-Glo IG50, Example 8, HepG2; assay type: cell-based; conditions: Homo sapiens, HepG2, 72 hours
# Procedure: as §1, §2, §3, §4, §5, §6
# PLC/PRF/5 [2] = test: CellTiter-Glo IG50, Example 8, PLC/PRF/5; assay type: cell-based; conditions: Homo sapiens, PLC/PRF/5, 72 hours
# Procedure: as §1, §2, §3, §4, §5, §6
# AGS = test: CellTiter-Glo IG50, Example 8, AGS; assay type: cell-based; conditions: Homo sapiens, 72 hours
# Procedure: as §1, §2, §3, §4, §5, §6
# T47D = test: CellTiter-Glo IG50, Example 8, T47D; assay type: cell-based; conditions: Homo sapiens, 72 hours
# Procedure: as §1, §2, §3, §4, §5, §6
# PANC-1 = test: CellTiter-Glo IG50, Example 8, PANC-1; assay type: cell-based; conditions: Homo sapiens, PANC-1, 72 hours
# Procedure: as §1, §2, §3, §4, §5, §6
# MDA-MB-231 = test: CellTiter-Glo IG50, Example 8, MDA-MB-231; assay type: cell-based; conditions: Homo sapiens, MDA-MB-231, 72 hours
# Procedure: as §1, §2, §3, §4, §5, §6
# MKN45 = test: CellTiter-Glo IG50, Example 8, MKN45; assay type: cell-based; conditions: Homo sapiens, MKN-45, MKN45, 72 hours
# Procedure: as §1, §2, §3, §4, §5, §6
# HT-29 = test: CellTiter-Glo IG50, Example 8, HT-29; assay type: cell-based; conditions: Homo sapiens, HT-29, 72 hours
# Procedure: as §1, §2, §3, §4, §5, §6
# MIAPACA-2 = test: CellTiter-Glo IG50, Example 8, MIAPACA-2; assay type: cell-based; conditions: Homo sapiens, MIA PaCa-2, MIAPACA-2, 72 hours
# Procedure: as §1, §2, §3, §4, §5, §6
# KATO III = test: CellTiter-Glo IG50, Example 8, KATO III; assay type: cell-based; conditions: Homo sapiens, 72 hours
# Procedure: as §1, §2, §3, §4, §5, §6
# LoVo = test: CellTiter-Glo IG50, Example 8, LoVo; assay type: cell-based; conditions: Homo sapiens, 72 hours
# Procedure: as §1, §2, §3, §4, §5, §6
# Capan-1 = test: CellTiter-Glo IG50, Example 8, Capan-1; assay type: cell-based; conditions: Homo sapiens, Capan-1, 72 hours
# Procedure: as §1, §2, §3, §4, §5, §6
# Hep3B [3] = test: CellTiter-Glo IG50, Example 8, Hep3B; assay type: cell-based; conditions: Homo sapiens, 72 hours
# Procedure: as §1, §2, §3, §4, §5, §6
# Hep3B [4] = test: CellTiter-Glo IG50, Example 9 HCC panel, Hep3B; assay type: cell-based; conditions: Homo sapiens, 72 hours
# Procedure: as §3, §4, §5, §6, §2
# (§7) Following the cell culture protocol and data analysis methods described in Example 8, the following IG50 results (in μM) were observed: […]
# PBMC = test: CellTiter-Glo IG50, Example 9 HCC panel, PBMC; assay type: cell-based; conditions: 72 hours
# Procedure: as §3, §4, §5, §6, §2, §7
# HUH7 = test: CellTiter-Glo IG50, Example 9 HCC panel, HUH7; assay type: cell-based; conditions: Homo sapiens, Huh-7, HUH7, 72 hours
# Procedure: as §3, §4, §5, §6, §2, §7
# JHH5 = test: CellTiter-Glo IG50, Example 9 HCC panel, JHH5; assay type: cell-based; conditions: JHH5, 72 hours
# Procedure: as §3, §4, §5, §6, §2, §7
# HepG2 [5] = test: CellTiter-Glo IG50, Example 9 HCC panel, HepG2; assay type: cell-based; conditions: Homo sapiens, HepG2, 72 hours
# Procedure: as §3, §4, §5, §6, §2, §7
# SNU878 = test: CellTiter-Glo IG50, Example 9 HCC panel, SNU878; assay type: cell-based; conditions: SNU878, 72 hours
# Procedure: as §3, §4, §5, §6, §2, §7
# PLC/PRF/5 [6] = test: CellTiter-Glo IG50, Example 9 HCC panel, PLC/PRF/5; assay type: cell-based; conditions: Homo sapiens, PLC/PRF/5, 72 hours
# Procedure: as §3, §4, §5, §6, §2, §7
# c-Rel protein = target: T1, c-Rel protein (Homo sapiens, UniProt Q04864); test: Electrophoretic Mobility Shift Assay (EMSA), c-Rel binding to CD28RE oligonucleotide; conditions: 10 nM c-Rel protein
# T1 sequence (Q04864 1-619): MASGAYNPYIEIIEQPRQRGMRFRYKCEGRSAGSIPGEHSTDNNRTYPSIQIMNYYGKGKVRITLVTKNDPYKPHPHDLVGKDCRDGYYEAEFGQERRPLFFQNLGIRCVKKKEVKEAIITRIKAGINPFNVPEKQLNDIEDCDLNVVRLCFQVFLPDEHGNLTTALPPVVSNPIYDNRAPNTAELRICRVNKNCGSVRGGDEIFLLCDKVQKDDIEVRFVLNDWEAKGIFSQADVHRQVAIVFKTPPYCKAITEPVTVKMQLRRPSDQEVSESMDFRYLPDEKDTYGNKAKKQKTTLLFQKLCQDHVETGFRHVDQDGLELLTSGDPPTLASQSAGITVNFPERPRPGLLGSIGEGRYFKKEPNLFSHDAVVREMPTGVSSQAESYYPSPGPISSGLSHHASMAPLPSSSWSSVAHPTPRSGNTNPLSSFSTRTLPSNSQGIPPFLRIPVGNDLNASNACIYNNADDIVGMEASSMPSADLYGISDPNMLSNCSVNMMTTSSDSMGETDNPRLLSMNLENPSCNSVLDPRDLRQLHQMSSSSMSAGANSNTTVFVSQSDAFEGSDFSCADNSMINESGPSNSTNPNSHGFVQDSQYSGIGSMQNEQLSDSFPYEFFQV
# Procedure: DNA binding reaction (20 μL) was carried out in 1×DNA Binding Buffer (10 mM Tris, 40 mM NaCl, 1 mM EDTA, 4% glycerol) with 10 nM c-Rel protein and 0.5 ng phosphor-labeled CD28RE oligonucleotide for 10 minutes at room temperature in 96-well plates. Test compounds, in serial dilutions, were added into each well, and further incubated for 15 minutes before loading onto native 5% polyacrylamide gel. Electrophoresis proceeded for 2.5 hours at 160V. Radioactive signals were quantified using Phospho-Imager. IC50 of compounds of example 1 to 75 were determined by quantifying the intensity of Rel/NF-κB inhibition in EMSA using phospho-imager. An example of EMSA data of the present invention is shown for compound 6 in FIG. 2.
compound,measurement,setting,value
CC(C)CCCOc1cc2oc3nc(=O)[nH]c(=O)c-3cc2cc1F [IT-839],IC50,MCF-7,> 16 µM
same,IC50,HCT116,> 16 µM
same,IC50,HepG2 [1],10.5 µM
same,IC50,PLC/PRF/5 [2],> 16 µM
same,IC50,AGS,> 16 µM
same,IC50,T47D,> 16 µM
same,IC50,PANC-1,6.93 µM
same,IC50,MDA-MB-231,2.01 µM
same,IC50,MKN45,> 16 µM
same,IC50,HT-29,> 16 µM
same,IC50,MIAPACA-2,> 16 µM
same,IC50,KATO III,> 16 µM
same,IC50,LoVo,4.34 µM
same,IC50,Capan-1,> 16 µM
same,IC50,Hep3B [3],3.35 µM
COCCOCCOc1ccc2cc3c(=O)[nH]c(=O)nc-3oc2c1Cl [IT-876],IC50,Hep3B [4],> 16 µM
same,IC50,PBMC,8.67 µM
same,IC50,HUH7,17.7 µM
same,IC50,JHH5,8.5 µM
same,IC50,HepG2 [5],4.9 µM
same,IC50,SNU878,> 16 µM
same,IC50,PLC/PRF/5 [6],> 16 µM
CCCCCCOc1cc2oc3nc(=O)[nH]c(=O)c-3cc2cc1F [IT-835],IC50,Hep3B [4],3.26 µM
same,IC50,PBMC,0.985 µM
same,IC50,HUH7,5.4 µM
same,IC50,JHH5,> 16 µM
same,IC50,HepG2 [5],> 16 µM
same,IC50,SNU878,> 16 µM
same,IC50,PLC/PRF/5 [6],> 16 µM
"Nc1ccn([C@@H]2O[C@H](CO)[C@@H](O)C2(F)F)c(=O)n1 [Gemcitabine, gemcitabine, reference compound]",IC50,MCF-7,> 16 µM
same,IC50,T47D,> 16 µM
same,IC50,PANC-1,> 16 µM
same,IC50,MDA-MB-231,> 16 µM
same,IC50,MIAPACA-2,0.012 µM
same,IC50,Capan-1,0.051 µM
"O=c1[nH]cc(F)c(=O)[nH]1 [5-FU, 5-fluorouracil, reference compound]",IC50,HCT116,5.2 µM
same,IC50,AGS,31.9 µM
same,IC50,MKN45,4.72 µM
same,IC50,HT-29,15.9 µM
same,IC50,KATO III,> 64 µM
same,IC50,LoVo,27 µM
CCCCCCCOc1ccc2cc3c(=O)[nH]c(=O)nc-3oc2c1Cl [IT-846],IC50,Hep3B [4],2.34 µM
same,IC50,PBMC,0.456 µM
same,IC50,HUH7,3.39 µM
same,IC50,JHH5,> 16 µM
same,IC50,HepG2 [5],4.27 µM
same,IC50,SNU878,> 16 µM
same,IC50,PLC/PRF/5 [6],8.51 µM
"CCOc1ccc2cc3c(=O)[nH]c(=O)nc-3oc2c1Cl [compound 22, 9-chloro-8-ethoxy-2H-chromeno[2,3-d]pyrimidine-2,4(3H)-dione]",IC50,c-Rel protein,< 1 µM
CC(C)CCCOc1cc2oc3nc(=O)[nH]c(=O)c-3cc2cc1F [compound 35],IC50,c-Rel protein,< 1 µM
CC(C)(C)COc1cc2oc3nc(=O)[nH]c(=O)c-3cc2cc1F [compound 36],IC50,c-Rel protein,< 0.5 µM
O=C(O)CCCCCOc1ccc2cc3c(=O)[nH]c(=O)nc-3oc2c1Cl [IT-855],IC50,Hep3B [4],> 16 µM
same,IC50,PBMC,> 16 µM
same,IC50,HUH7,> 16 µM
same,IC50,JHH5,8.15 µM
same,IC50,HepG2 [5],> 16 µM
same,IC50,SNU878,9.15 µM
same,IC50,PLC/PRF/5 [6],> 16 µM
CCCCCCCOc1ccc2cc3c(=O)[nH]c(=O)nc-3oc2c1Cl [compound 42],IC50,c-Rel protein,< 0.5 µM
CC(C)CCCOc1ccc2cc3c(=O)[nH]c(=O)nc-3oc2c1F [compound 47],IC50,c-Rel protein,< 1 µM
CCCCOc1ccc2cc3c(=O)[nH]c(=O)nc-3oc2c1F [compound 45],IC50,c-Rel protein,< 0.5 µM
"CC(=O)OCCCCOc1ccc2cc3c(=O)[nH]c(=O)nc-3oc2c1Cl [compound 60, 4-((9-chloro-2,4-dioxo-3,4-dihydro-2H-chromeno[2,3-d]pyrimidin-8-yl)oxy)butyl acetate]",IC50,c-Rel protein,< 5 µM
"CC(C)COc1ccc2cc3c(=O)[nH]c(=O)nc-3oc2c1 [compound 23, 8-isobutoxy-2H-chromeno[2,3-d]pyrimidine-2,4(3H)-dione]",IC50,c-Rel protein,< 1 µM
CCCCCCOc1cc2oc3nc(=O)[nH]c(=O)c-3cc2cc1Cl [compound 37],IC50,c-Rel protein,< 0.5 µM
"Cc1ccc2cc3c(=O)[nH]c(=O)nc-3oc2c1 [compound 12, 8-methyl-2H-chromeno[2,3-d]pyrimidine-2,4(3H)-dione]",IC50,c-Rel protein,< 1 µM
"CCCc1cc2oc3nc(=O)[nH]c(=O)c-3cc2cc1Cl [compound 25, 7-chloro-8-propyl-2H-chromeno[2,3-d]pyrimidine-2,4(3H)-dione]",IC50,c-Rel protein,< 1 µM
"CCCCn1c(=O)nc2oc3cc(OCC)ccc3cc-2c1=O [compound 24, 3-(n-butyl)-8-ethoxy-2H-chromeno[2,3-d]pyrimidine-2,4(3H)-dione]",IC50,c-Rel protein,< 1 µM
"COc1cc(Br)cc2cc3c(=O)[nH]c(=O)nc-3oc12 [compound 4, 7-bromo-9-methoxy-2H-chromeno[2,3-d]pyrimidine-2,4(3H)-dione]",IC50,c-Rel protein,< 2 µM
"Cc1ccc2cc3c(=O)[nH]c(=S)nc-3oc2c1 [compound 17, 8-methyl-2-thioxo-2H-chromeno[2,3-d]pyrimidin-4(3H)-one]",IC50,c-Rel protein,< 0.5 µM
"O=c1nc2oc3cc(O)ccc3cc-2c(=O)[nH]1 [compound 11, 8-hydroxy-2H-chromeno[2,3-d]pyrimidine-2,4(3H)-dione]",IC50,c-Rel protein,< 1 µM
